Test results reported in publication PMC6662706, “Short amylin receptor antagonist peptides improve memory deficits in Alzheimer’s disease mouse model” (Scientific Reports, 2019).
No end group written: not given here.

How the values were obtained:
hippocampal LTP (CA1) = experiment: Hippocampal long-term potentiation (LTP) in slices from wild type mice; set-up: species or system mouse
Method: We examined whether the peptide fragments were capable of influencing Aβ- or hAmylin-induced reduction of hippocampal LTP in mice. Exposure of hippocampal slices from wild-type mice to hAmylin (50 nM) or Aβ (50 nM) depressed LTP induced by a weak tetanization protocol at the CA1 region as previously reported[20],[30]. To determine whether peptides affected hAmylin or Aβ- induced depression of LTP, we applied 250 nM R5 or R14 continuously for 5 min prior to exposure of the hippocampal slices to 50 nM hAmylin or Aβ and the subsequent LTP induction. […] We therefore sought to determine whether peptide fragments were also capable of improving LTP levels in the same TgCRND8 AD mouse model. […] Importantly, doses of the short peptide fragments used in these experiments were equimolar to those used for AC253 and pramlintide in our previous studies[20],[30].
For electrophysiology experiment, hippocampal slices (400-μm thick) were prepared using a vibratome from wild type and TgCRND8 mice (8 month of age, male or female). For long-term potentiation (LTP) measurement, the stimulus strength was set to elicit 40–50% of the maximum fEPSP (field excitatory postsynaptic potential) amplitude and test pulses were delivered once every 30s. LTP was induced by 3-theta-burst stimulation protocol (each burst consisted of four pulses at 100 Hz with a 200-ms interburst interval). All drugs and chemicals were applied directly to the slice via bath perfusion.
Brains were quickly removed from mice following decapitation, placed in a cold artificial cerebral spinal fluid (aCSF) on a vibratome chamber, and transverse sections cut through the hippocampus. The aCSF contained (in millimolar 124 NaCl, 3 KCl, 2.4 CaCl2, 2 MgCl2, 1.25 NaH2PO4, 26 NaHCO3, and 10 D-glucose and was equilibrated with 95 % O2 and 5 % CO2. Hippocampal slices (400-μm thick) were maintained in aCSF-filled holding chamber at room temperature for at least 1 h and individually transferred to the submerged glass bottom recording chamber, which was constantly perfused with aCSF (2 ml/min) at 30 °C. Field excitatory postsynaptic potential (fEPSP) was recorded with a metallic (Pt/Ir) electrode (FHC, Bowdoin, ME) from the stratum radiatum layer of Cornu ammonis 1 region of the hippocampus (CA1) area, and the Schaffer collateral afferents were stimulated with 100-μs test pulses via a bipolar cluster electrode (FHC). For long-term potentiation (LTP) experiments, the stimulus strength was set to elicit 40–50 % of the maximum fEPSP amplitude and test pulses were delivered to Schaffer collaterals once every 30 s. […] Before 3-TBS or drug application, the responses were monitored for at least 10 min to ensure a stable baseline of fEPSP. […]

5XFAD mice = experiment: Brain amyloid pathology and neuroinflammation markers in 5XFAD mice (thioflavin-S, Western blot); type: in vivo, mouse
Text: We initiated treatment of 5XFAD and wild-type control mice at 6 month age at a time point when they had also developed very significant amyloid burden in addition to the spatial memory deficits noted above (Fig. 4A). […] There was significant reduction in the amyloid plaque numbers, and the overall amyloid burden (as judged by the area covered by plaques) in these brain regions in the peptide treated mice (Fig. 5B, p < 0.05). […] (Fig. 5C,D, p < 0.05).
After completion of treatments, the mouse brains were harvested and the right hemisphere was frozen for biochemical analysis (Western blot, ELISA), and the left hemisphere was fixed with PAF for further processed. The thicker brain sections were stained thioflavin-S for detecting Aβ plaques.
After completion of treatments, all mice were sacrificed with an overdose of isoflourane anesthetic, perfused transcardially with saline using a pump, and the brains were harvested. The right hemisphere was frozen for biochemical analysis (Western blot, ELISA), and the left hemisphere was fixed with PAF for 24 h at 4 C. These brain tissues were further processed with modified CLARITY protocol (http://www.chunglabresources.com/clarity/). Briefly, the fixed brain tissue was transferred to hydrogel monomer solution (4% acrylamide in PBS) at 4 C for 24 h, and subsequently to a 24-well plate, merged in fresh hydrogel solution and the tissue brought to 37 C till formation of the gel. Thick sagittal slices (400 μm) were cut on an HR2 Slicer (Sigman Electronic, Germany). The thicker brain sections were cleared with 8% SDS in PBS for 24 h, followed by 0.3% Triton X-100 in PBS for 24 h. Blocking the section in 2%BSA-10% goat serum for 4h. A modified thioflavin-S staining was used for detecting Aβ plaques. […] Images were visualized using fluorescence microscopy (Axioplan-2, Carl Zeiss Ltd). Amyloid plaque size and area were analyzed with Image J software.
Frozen brain tissues or cultured cells were homogenized in cold RIPA buffer with protease inhibitors and proteins were quantified with BCA assay (BioRad, Mississauga, ON, Canada). […]

[1] = 5 weeks ip, normalized to β-actin, n = 6, p < 0.05

Substance: SQELHRLQTYPR-NH2 [R5]
- effect of peptide alone on hippocampal LTP (hippocampal LTP (CA1); wild type mouse slices, 250 nM): did not impair LTP
- effect on Aβ-induced depression of hippocampal LTP (hippocampal LTP (CA1); wild-type mouse slices, peptide 250 nM for 5 min before Aβ1–42 50 nM, n = 6 recordings): reversed
- effect on hAmylin-induced depression of hippocampal LTP (hippocampal LTP (CA1); wild-type mouse slices, peptide 250 nM for 5 min before hAmylin 50 nM, n = 6 recordings): reversed
- amyloid proteins (Aβ, 6E10) in cortical tissue, Western blot, versus normal saline (5XFAD mice; [1]): significantly reduced
- neuroinflammation markers CD68, NLPR3 and caspase-1, Western blot (5XFAD mice; [1]): significantly attenuated
- amyloid pathology in the cortex, hippocampus and thalamus versus saline (5XFAD mice; ip three times a week for 5 weeks, thioflavin-S): significantly reduced amyloid pathology
